Measured values reported in US7723358B2, “Aroyl-O-piperidine derivatives for the treatment of diabetes-related problems” (Merck Patent GmbH, priority 2004, dated 2010).

How the values were obtained:
[1] = target: T1, microsomal triglyceride transfer protein (MTP) (Mesocricetus auratus, UniProt P55158); assay: Inhibition of MTP activity: transfer of [3H]-triolein from donor liposomes to biotinylated LDL, SPA; assay type: biochemical; details: MTP from golden hamster liver; incubation 18-24 hours at 37° C.; read-out: IC50, concentration that allows a 50% inhibition of MTP
T1 construct: The supernatant comprising the soluble MTP is dialysed against Tris/HCl 150 mM; from tissue; host or cells: golden hamster liver microsomes, deoxycholate-solubilised supernatant, dialysed
T1 sequence (P55158 19-895): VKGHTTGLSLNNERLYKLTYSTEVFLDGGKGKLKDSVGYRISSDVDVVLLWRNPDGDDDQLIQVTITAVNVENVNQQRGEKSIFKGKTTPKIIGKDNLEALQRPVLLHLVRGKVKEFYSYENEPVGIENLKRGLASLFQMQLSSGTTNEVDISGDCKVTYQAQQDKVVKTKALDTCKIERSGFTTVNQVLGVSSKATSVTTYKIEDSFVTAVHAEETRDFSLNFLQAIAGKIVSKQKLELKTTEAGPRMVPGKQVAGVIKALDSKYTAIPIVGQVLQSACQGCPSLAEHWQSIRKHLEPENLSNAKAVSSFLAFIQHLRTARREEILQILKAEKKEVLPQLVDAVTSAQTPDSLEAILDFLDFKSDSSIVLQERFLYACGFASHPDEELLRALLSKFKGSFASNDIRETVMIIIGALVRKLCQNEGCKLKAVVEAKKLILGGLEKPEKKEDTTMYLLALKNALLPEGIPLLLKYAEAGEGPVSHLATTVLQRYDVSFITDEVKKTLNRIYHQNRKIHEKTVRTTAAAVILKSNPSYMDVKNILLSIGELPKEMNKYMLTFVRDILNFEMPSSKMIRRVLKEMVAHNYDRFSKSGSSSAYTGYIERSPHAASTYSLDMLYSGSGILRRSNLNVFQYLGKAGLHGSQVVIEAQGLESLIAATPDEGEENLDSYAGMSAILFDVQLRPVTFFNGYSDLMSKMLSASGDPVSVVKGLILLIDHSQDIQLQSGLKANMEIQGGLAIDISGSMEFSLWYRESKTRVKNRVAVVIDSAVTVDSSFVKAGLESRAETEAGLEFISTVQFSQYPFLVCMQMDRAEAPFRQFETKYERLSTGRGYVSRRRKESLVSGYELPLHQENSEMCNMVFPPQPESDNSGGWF
How it was run: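 Soluble MTP was extracted with deoxycholate from golden hamster liver microsomes. It was incubated with [3H]-triolein/phosphatidylcholine donor liposomes, biotinylated LDL acceptors and compound in DMSO in HEPES/NaCl/BSA buffer, pH 7.4, for 18-24 h at 37° C. Transfer was read with streptavidin SPA beads, and IC50 was taken as 50% inhibition of transfer.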

[2] = system: apo B secretion in HepG2 cells; assay: Secretion of apo B in the HepG2 human cell line (sandwich-ELISA); assay type: cell-based; details: 24 hours incubation, culture supernatant, read-out: IC50, concentration that produces a 50% inhibition of apo B secretion in the HepG2 cells
Procedure: Analysis of the Secretion of apo B in the HepG2 Human Cell Line:
The activity of a compound according to the invention can be evaluated by measuring the inhibition of apo B secretion in HepG2 cells.
The HepG2 cells (ECACC—No. 85011430) are used as model in the study of the in vitro hepatic secretion of lipoproteins (Dixon J. and Ginsberg H., J., Lipid. Res., 1993, 34, 167-179).
The HepG2 cells are cultured in Dulbecco's modified Eagle's medium comprising 10% foetal calf serum (DMEM and FBS—Gibco) in 96-well plates under an atmosphere of 5% carbon dioxide for 24 hours (about 70% confluence).
The test compounds are dissolved at a concentration of 2 or 10 mM in dimethyl sulfoxide (DMSO). Serial dilutions (1:3.16) are made in DMSO and are added (1:200—Robot Multimek Beckman) to the growth medium (200 μL) and then finally incubated for 24 hours in the various wells containing the HepG2 cells.
The 24-hour culture supernatant diluted to 1:5 (phosphate-buffered saline:PBS comprising 1% bovine serum albumin) is tested according to a sandwich-ELISA method specific for human apo B.
The results are expressed in terms of IC50, i.e. the concentration that produces a 50% inhibition of apo B secretion in the HepG2 cells.

Row | Structure (SMILES) | IC50 [1] [nM] | IC50 [2] [nM]
1 | COCCOC(=O)N1CCC(Oc2cccc(NC(=O)c3ccccc3-c3ccc(C(F)(F)F)cc3)c2)CC1 [Example 75, 2-methoxyethyl 4-[3-[[[4′-(trifluoromethyl)-[1,1′-biphenyl]-2-yl]carbonyl]amino]-phenoxy]-1 piperidinecarboxylate] | 130 | 39.8
2 | Cc1cccc(C(=O)Nc2cccc(OC3CCN(C(=O)Oc4ccc([N+](=O)[O-])cc4)CC3)c2)c1-c1ccc(OC(F)(F)F)cc1 [Example 9, 4-nitrophenyl 4-[3-[[[6-methyl-4′-(trifluoro-methoxy)[1,1′-biphenyl]-2-yl]carbonyl]-amino]phenoxy]-1-piperidinecarboxylate] | 51.8 | 7.9
3 | COC(=O)N1CCC(Oc2cccc(NC(=O)c3ccccc3-c3ccc(C(F)(F)F)cc3)c2)CC1 [Example 72, methyl 4-[3-[[[4′-(trifluoromethyl)[1,1′-biphenyl]-2-yl]carbonyl]amino]phenoxy]-1-piperidinecarboxylate] | 42.2 | 4.6
4 | COC(=O)c1ccccc1NC(=O)N1CCC(Oc2cccc(NC(=O)c3cccc(C)c3-c3ccc(OC(F)(F)F)cc3)c2)CC1 [Example 36, methyl 2-[[[4-[3-[[[6-methyl-4′-(trifluoro-methoxy)[1,1′-biphenyl]-2-yl]carbonyl]-amino]phenoxy]-1-piperidinyl]carbonyl]-amino]benzoate] | 51.3 | 67.8
5 | COCCOC(=O)N1CCC(Oc2cccc(NC(=O)c3cccc(C)c3-c3ccc(OC(F)(F)F)cc3)c2)CC1 [Example 73, 2-methoxyethyl 4-[3-[[[6-methyl-4′-(trifluoromethoxy)[1,1′-biphenyl]-2-yl]-carbonyl]amino]phenoxy]-1-piperidine-carboxylate] | 33.3 | 1.6
6 | Cc1cccc(C(=O)Nc2cccc(OC3CCN(S(=O)(=O)C(C)C)CC3)c2)c1-c1ccc(OC(F)(F)F)cc1 [Example 14, 6-methyl-N-[3-[[1-[(1-methyl-ethyl)sulfonyl]-4-piperidinyl]oxy]phenyl]-4′-(trifluoromethoxy)[1,1′-biphenyl]-2-carboxamide] | 114 | 62.7
7 | CCOC(=O)CCC(=O)N1CCC(Oc2cccc(NC(=O)c3cccc(C)c3-c3ccc(OC(F)(F)F)cc3)c2)CC1 [Example 96, ethyl 4-[3-[[[6-methyl-4′-(trifluoromethoxy)-[1,1′-biphenyl]-2-yl]carbonyl]amino]-phenoxy]-γ-oxo-1-piperidinebutanoate] | 128 | –
8 | Cc1cccc(C(=O)Nc2cccc(OC3CCN(Cc4ccccc4)CC3)c2)c1-c1ccc(OC(F)(F)F)cc1 [Example 58, [1,1′-biphenyl]-6-methyl-N-[3-[[1-(phenyl-methyl)-4-piperidinyl]oxy]phenyl]-4′-(trifluoromethoxy)-2-carboxamide] | 74.1 | –
9 | CCCCNC(=O)N1CCC(Oc2cccc(NC(=O)c3cccc(C)c3-c3ccc(OC(F)(F)F)cc3)c2)CC1 [Example 33, N-butyl-4-[3-[[[6-methyl-4′-(trifluorometh-oxy)[1,1′-biphenyl]-2-yl]carbonyl]amino]-phenoxy]-1-piperidinecarboxamide] | 114 | –
10 | Cc1ccc(CN2CCC(Oc3cccc(NC(=O)c4cccc(C)c4-c4ccc(OC(F)(F)F)cc4)c3)CC2)cc1 [Example 85, 6-methyl-N-[3-[[1-[(4-methylphenyl)-methyl]-4-piperidinyl]oxy]phenyl]-4′-(trifluoromethoxy)[1,1′-biphenyl]-2-carboxamide] | 392 | –
11 | Cc1cccc(C(=O)Nc2cccc(OC3CCN(Cc4ccc(N(C)C)cc4)CC3)c2)c1-c1ccc(OC(F)(F)F)cc1 [Example 84, N-[3-[[1-[[4-(dimethylamino)phenyl]-methyl]-4-piperidinyl]oxy]phenyl]-6-methyl-4′-(trifluoromethoxy)[1,1′-biphenyl]-2-carboxamide] | 382 | –
